Experimental data reported in patent US5599793A, “Antithromobotic agents” (Eli Lilly and Company, priority 1995, dated 1997).

How the values were obtained:
Human plasma [1] = experiment: Human plasma anticoagulation, activated partial thromboplastin time (APTT); assay type: biochemical; conditions: concentration required to double the APTT, linear extrapolation
Experimental: (§1) Dog plasma and rat plasma is obtained from conscious mixed-breed hounds (either sex, Hazelton-LRE, Kalamazoo, Mich., U.S.A.) or from anesthetized male Sprague-Dawley rats (Harlan Sprague-Dawley, Inc., Indianapolis, Ind., U.S.A.) by venipuncture into 3.8 percent citrate. Fibrinogen is prepared from in-date ACD human blood as the fraction I-2 according to previous procedures and specifications. Smith, Biochem. J., 185, 1-11 (1980); and Smith, et al., Biochemistry, 11, 2958-2967 (1972). Human fibrinogen is also purchased as 98 percent pure/plasmin free from American Diagnostica, Greenwich, Conn. Coagulation reagents ACTIN, Thromboplastin, and Human plasma are from Baxter Healthcare Corp., Dade Division, Miami, Fla. Bovine thrombin from Parke-Davis ([…], Mich.) is used for coagulation assays in plasma.
(§2) Coagulation assay procedures are as previously described. Smith, et al., Thrombosis Research, 50, 163-174 (1988). A CoAScreener coagulation instrument (American LABor, Inc.) is used for all coagulation assay measurements. The prothrombin time (PT) is measured by adding 0.05 mL saline and 0.05 mL Thromboplastin-C reagent to 0.05 mL test plasma. The activated partial thromboplastin time (APTT) is measured by incubation of 0.05 mL test plasma with 0.05 mL Actin reagent for 120 seconds followed by 0.05 mL CaCl2 (0.02M). The thrombin time (TT) is measured by adding 0.05 mL saline and 0.05 mL thrombin (10 NIH units/mL) to 0.05 mL test plasma. The compounds of formula I are added to human or animal plasma over a wide range of concentrations to determine prolongation effects on the APTT, PT, and TT assays. Linear extrapolations are performed to estimate the concentrations required to double the clotting time for each assay.

Human plasma [2] = experiment: Human plasma anticoagulation, thrombin time (TT); assay type: biochemical; conditions: concentration required to double the thrombin time, linear extrapolation
Experimental: as §1, §2

Trypsin = target: T1, Trypsin (Bos taurus, UniProt P00760); experiment: Serine protease selectivity, chromogenic substrate (Kass), trypsin; assay type: biochemical, bovine; conditions: substrate N-Benzoyl-Phe-Val-Arg-p-nitroanilide
T1 construct: Bovine trypsin is purchased; purchased Worthington Biochemicals, Freehold, N.J
T1 sequence (P00760 24-246): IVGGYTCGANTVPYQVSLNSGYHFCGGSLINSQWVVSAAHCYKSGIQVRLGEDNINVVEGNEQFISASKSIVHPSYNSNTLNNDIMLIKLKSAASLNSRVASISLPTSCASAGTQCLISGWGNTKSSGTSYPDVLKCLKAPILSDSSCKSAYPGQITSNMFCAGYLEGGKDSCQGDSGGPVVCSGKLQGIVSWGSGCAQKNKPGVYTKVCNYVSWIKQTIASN
Experimental: (§3) The assay is carried out by mixing 50 μL buffer (0.03M Tris, 0.15M NaCl, pH 7.4) with 25 μL of bovine thrombin or human thrombin solution (0.21 mg/mL of thrombostat bovine thrombin, Parke-Davis, or purified human thrombin, Enzyme Research Laboratories, South Bend, Ind., at about 8 NIH units/mL, in the same buffer) and 25 μL of test compound in a solvent (in 50% aqueous methanol, v:v). The 150 μL of an aqueous solution of the chromogenic substrate (at 0.25 mg/mL) are added and the rates of hydrolysis of the substrate are measured by monitoring the reactions at 405 nm for the release of p-nitroaniline. Standard curves are constructed by plotting free thrombin concentration against hydrolysis rate. The hydrolysis rates observed with test compounds are then converted to "free thrombin" values in the respective assays by use of the standard curves. The bound thrombin (bound to test compound) is calculated by subtracting the amount of free thrombin observed in each assay from the known initial amount of thrombin used in the assay. The amount of free inhibitor in each assay is calculated by subtracting the number of moles of bound thrombin from the number of moles of added inhibitor (test compound).
(§4) Kass is calculated for a range of concentrations of test compounds and the mean value is reported in units of liter per mole.
(§5) By substantially following the procedures described above for human thrombin, and using other human blood coagulation system serine proteases and proteases of the fibrinolytic system with the appropriate chromogenic substrates, identified below, selectivity of the compounds of the present invention with respect to the coagulation factor serine proteases and with respect to the fibrinolytic system serine proteases are evaluated as well as their substantial lack of interference with serine proteases of the fibrinolytic system. Thrombin inhibitors preferably should spare fibrinolysis induced by urokinase, tissue plasminogen activator (t-PA) and streptokinase. This would be important to the therapeutic use of such agents as an adjunct to streptokinase, t-PA or urokinase thrombolytic therapy and to the use of such agents as an endogenous fibrinolysis-sparing (with respect to t-PA and urokinase) antithrombotic agent. In addition to the lack of interference with the amidase activity of the fibrinolytic proteases, such fibrinolytic system sparing can be studied by the use of human plasma clots and their lysis by the respective fibrinolytic plasminogen activators.
(§6) Human factors X, Xa, IXa, XIa, and XIIa are purchased from Enzyme Research Laboratories, South Bend, Ind.; human urokinase from Leo Pharmaceuticals, Denmark; and recombinant activated Protein C (aPC) is prepared at Eli Lilly and Co. substantially according to U.S. Pat. No. 4,981,952. Chromogenic substrates: N-Benzoyl-Ile-Glu-Gly-Arg-p-nitroanilide (for factor Xa); N-Cbz-D-Arg-Gly-Arg-p-nitroanilide (for factor IXa assay as the factor Xa substrate); Pyroglutamyl-Pro-Arg-p-nitroanilide (for Factor XIa and for aPC); H-D-Pro-Phe-Arg-p-nitroanilide (for factor XIIa); and Pyroglutamyl-Gly-Arg-p-nitroanilide (for urokinase); are purchased from KabiVitrum, Stockholm, Sweden, or from Midwest Biotech, Fishers, Ind. Bovine trypsin is purchased from Worthington Biochemicals, Freehold, N.J., and human plasma kallikrein from Kabi Vitrum, Stockholm, Sweden. Chromogenic substrate H-D-Pro-Phe-Arg-p-nitroanilide for plasma kallikrein is purchased from Kabi Vitrum, Stockholm, Sweden. N-Benzoyl-Phe-Val-Arg-p-nitroanilide, the substrate for human thrombin and for trypsin, is synthesized according to procedures described above for the compounds of the present invention, using known methods of peptide coupling from commercially available reactants or purchased from Midwest Biotech, Fishers, Ind.

factor Xa = target: T2, factor Xa (Homo sapiens, UniProt P00742); experiment: Serine protease selectivity, chromogenic substrate (Kass), factor Xa; assay type: biochemical; conditions: substrate N-Benzoyl-Ile-Glu-Gly-Arg-p-nitroanilide
T2 construct: Human factors X, Xa, IXa, XIa, and XIIa are purchased; purchased Enzyme Research Laboratories, South Bend, Ind
Experimental: as §3, §4, §5, §6

Human Thrombin = Human Thrombin (Homo sapiens, UniProt P00734); experiment: Inhibition of amidase activity of thrombin (Kass); assay type: biochemical; conditions: apparent association constant, mean over a range of concentrations
Experimental: as §3
The Kass value is the hypothetical equilibrium constant for the reaction between thrombin and the test compound (I). [drawing 54]
as §4

Plasmin = target: T3, Plasmin (Homo sapiens, UniProt P00747); experiment: Serine protease selectivity, chromogenic substrate (Kass), plasmin; assay type: biochemical; conditions: substrate H-D-Val-Leu-Lys-p-nitroanilide
T3 construct: Human plasmin is purchased; purchased Boehringer Mannheim, Indianapolis, Ind
Experimental: as §3, §4, §5
(§7) Human plasmin is purchased from Boehringer Mannheim, Indianapolis, Ind.; nt-PA is purchased as single chain activity reference from American Diagnostica, Greenwich, Conn.; modified-t-PA6 (mt-PA6) is prepared at Eli Lilly and Company by procedure known in the art (See, Burck, et al., J. Biol. Chem., 265, […] (1990). Plasmin chromogenic substrate H-D-Val-Leu-Lys-p-nitroanilide and tissue plasminogen activator (t-PA) substrate H-D-Ile-Pro-Arg-p-nitroanilide are purchased from Kabi Vitrum, Stockholm, Sweden.

t-PA = target: T4, t-PA (Homo sapiens, UniProt P00750); experiment: Serine protease selectivity, chromogenic substrate (Kass), t-PA; assay type: biochemical; conditions: substrate H-D-Ile-Pro-Arg-p-nitroanilide
T4 construct: purchased American Diagnostica, Greenwich, Conn
Experimental: as §3, §4, §5, §7

Human plasma [3] = experiment: Human plasma anticoagulation, prothrombin time (PT); assay type: biochemical; conditions: concentration required to double the PT, linear extrapolation
Experimental: as §1, §2

T2 sequence (P00742 235-488 limits assumed): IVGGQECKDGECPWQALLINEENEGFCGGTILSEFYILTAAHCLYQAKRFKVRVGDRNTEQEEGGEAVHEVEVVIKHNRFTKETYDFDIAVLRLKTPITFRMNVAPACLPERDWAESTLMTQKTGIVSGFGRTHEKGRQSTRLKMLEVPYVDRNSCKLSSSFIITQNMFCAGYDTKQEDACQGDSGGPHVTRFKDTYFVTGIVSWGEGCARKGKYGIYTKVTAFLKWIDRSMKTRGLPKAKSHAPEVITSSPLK
T2 sequence (P00742 41-179 partner limits assumed): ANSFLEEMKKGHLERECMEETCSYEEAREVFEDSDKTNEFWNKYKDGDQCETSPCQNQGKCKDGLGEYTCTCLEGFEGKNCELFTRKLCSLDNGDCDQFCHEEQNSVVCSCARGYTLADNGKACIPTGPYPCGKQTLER
T4 sequence (P00750 36-562): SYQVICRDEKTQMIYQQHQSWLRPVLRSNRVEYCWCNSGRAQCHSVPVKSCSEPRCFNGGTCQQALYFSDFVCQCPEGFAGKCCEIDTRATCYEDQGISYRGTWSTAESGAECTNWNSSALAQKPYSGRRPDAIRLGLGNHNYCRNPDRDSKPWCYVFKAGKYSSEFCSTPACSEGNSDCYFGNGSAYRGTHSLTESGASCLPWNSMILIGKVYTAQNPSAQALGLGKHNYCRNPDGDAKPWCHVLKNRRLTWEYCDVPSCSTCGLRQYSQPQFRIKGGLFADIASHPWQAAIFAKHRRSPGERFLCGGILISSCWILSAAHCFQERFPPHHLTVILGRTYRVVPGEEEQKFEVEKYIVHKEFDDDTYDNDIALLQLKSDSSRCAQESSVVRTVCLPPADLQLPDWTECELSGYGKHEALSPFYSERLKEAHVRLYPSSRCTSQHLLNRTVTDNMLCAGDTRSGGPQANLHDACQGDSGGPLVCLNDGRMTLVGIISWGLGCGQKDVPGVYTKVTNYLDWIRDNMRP
T3 sequence (P00747 581-810 limits assumed): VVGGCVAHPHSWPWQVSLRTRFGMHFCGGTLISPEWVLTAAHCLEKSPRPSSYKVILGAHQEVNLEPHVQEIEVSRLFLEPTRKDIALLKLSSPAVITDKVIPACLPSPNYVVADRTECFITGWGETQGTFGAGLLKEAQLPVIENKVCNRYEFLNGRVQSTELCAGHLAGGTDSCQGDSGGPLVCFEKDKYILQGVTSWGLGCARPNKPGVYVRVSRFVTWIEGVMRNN
T3 sequence (P00747 97-580 partner limits assumed): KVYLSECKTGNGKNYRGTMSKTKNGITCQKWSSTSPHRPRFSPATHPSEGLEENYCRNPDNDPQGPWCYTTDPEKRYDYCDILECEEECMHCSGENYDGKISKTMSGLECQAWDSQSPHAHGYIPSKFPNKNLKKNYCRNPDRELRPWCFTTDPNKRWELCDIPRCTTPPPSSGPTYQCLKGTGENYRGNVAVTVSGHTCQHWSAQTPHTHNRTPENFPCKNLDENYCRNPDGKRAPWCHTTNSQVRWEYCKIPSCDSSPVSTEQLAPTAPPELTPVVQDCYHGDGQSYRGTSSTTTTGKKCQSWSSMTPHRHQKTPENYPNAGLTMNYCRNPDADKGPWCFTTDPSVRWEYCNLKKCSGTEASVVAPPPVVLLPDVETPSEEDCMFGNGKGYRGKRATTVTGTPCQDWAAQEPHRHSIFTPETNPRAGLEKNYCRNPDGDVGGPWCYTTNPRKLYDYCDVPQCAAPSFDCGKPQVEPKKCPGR

SMILES | 2x Clotting time, APTT (Human plasma [1]) | 2x Clotting time, TT (Human plasma [2]) | Enzyme Kass, Trypsin (Trypsin) | Enzyme Kass, Xa (factor Xa) [L/mol × 10^6] | Enzyme Kass, Human Thrombin (Human Thrombin) [L/mol × 10^6] | Enzyme Kass, Plasmin (Plasmin) [L/mol × 10^6] | Enzyme Kass, t-PA (t-PA) [L/mol × 10^6] | 2x Clotting time, PT (Human plasma [3])
CC(C)CC[C@H]1C[C@@H](C(=O)N[C@H](C=O)CCCNC(=N)N)N(C(=O)[C@H]2CCCCN2)C1.Cl.Cl (relative stereo) [Example 4, D-homoprolyl-L-cis-4-isoamyl-prolyl-L-argininal dihydrochloride] | 630 ng/mL | 130 ng/mL | 77 L/mol × 10^6 | 7.9 | 8.2 | 2.0 | 0.19 | 3,100 ng/mL
Cl.Cl.N=C(N)NCCC[C@@H](C=O)NC(=O)[C@@H]1C[C@H](c2ccccc2)CN1C(=O)[C@H]1CCCCN1 (relative stereo) [Example 6, D-hPro-Pro(4-cis-phenyl)-ArgH.2 HCl] | 840 ng/mL | 340 ng/mL | 240 L/mol × 10^6 | 5.7 | 2.9 | 5.3 | 0.065 | 4,100 ng/mL
CC(=O)Nc1ccc(O[C@H]2C[C@@H](C(=O)N[C@H](C=O)CCCNC(=N)N)N(C(=O)[C@H]3CCCCN3)C2)cc1.Cl.Cl (relative stereo) [Example 10, D-hPro-Pro(4-cis-(4-AcNH-phenoxy))-ArgH.2 HCl] | 2,200 ng/mL | 480 ng/mL | 63 L/mol × 10^6 | 0.59 | 3.0 | 3.4 | 0.027 | 10,000 ng/mL
CC(=O)Nc1cccc(O[C@H]2C[C@@H](C(=O)N[C@H](C=O)CCCNC(=N)N)N(C(=O)[C@H]3CCCCN3)C2)c1.Cl.Cl (relative stereo) [Example 12, D-hPro-Pro(4-cis-(3-AcNH-phenoxy))-ArgH.2 HCl] | 1,300 ng/mL | 210 ng/mL | 56 L/mol × 10^6 | 1.2 | 6.1 | 1.1 | 0.015 | 4,100 ng/mL
Cl.Cl.N=C(N)NCCC[C@@H](C=O)NC(=O)[C@@H]1C[C@H](Oc2cccc(N)c2)CN1C(=O)[C@H]1CCCCN1 (relative stereo) [Example 13, D-hPro-Pro(4-cis-(3-NH2-phenoxy))-ArgH.2 HCl] | 2,900 ng/mL | 490 ng/mL | 22 L/mol × 10^6 | 0.58 | 2.1 | 0.65 | 0.033 | 9,100 ng/mL
CC(C)CC[C@H]1C[C@@H](C(=O)N[C@H](C=O)CCCNC(=N)N)N(C(=O)[C@H]2CC3CCCCC3CN2)C1.Cl.Cl (relative stereo) [Example 27, D-3-cis-Piq-Pro(4-cis-isoamyl)-ArgH.2 HCl] | 395 ng/mL | 116 ng/mL | 633 L/mol × 10^6 | 11.6 | 5.4 | 14.0 |  | 1,232 ng/mL
CC(C)CC[C@H]1C[C@@H](C(=O)N[C@H](C=O)CCCNC(=N)N)N(C(=O)C2NCCC3CCCCC32)C1.Cl.Cl (relative stereo) [Example 28, 1-Piq-Pro(4-cis-isoamyl)-ArgH.2 HCl] | 22,727 ng/mL | 3,637 ng/mL | 20.30 L/mol × 10^6 | 0.14 | 0.41 | 0.27 |  | 43,401 ng/mL
Cl.Cl.N=C(N)NCCCC(C=O)NC(=O)C1CC2CCCCC2N1C(=O)C1CC2CCCCC2CN1 [Example 25, D-3-cis-Piq-cis-Ohi-ArgH.2 HCl] | 548 ng/mL | 25 ng/mL | 1,040 L/mol × 10^6 | 0.67 | 82 | 12.4 |  | 1,232 ng/mL
Cl.Cl.NC(N)=NCCCC(C=O)NC(=O)C1CC(Oc2ccccc2)CN1C(=O)C1CC2CCCCC2CN1 [Example 26, D-3-cis-Piq-Pro(4-cis-phenoxy)-ArgH.2 HCl] | 392 ng/mL | 82 ng/mL | 718 L/mol × 10^6 | 2.53 | 15.6 | 11.3 |  | 1,322 ng/mL
